Assay [1] concerns the target T1, α-amylase from porcine pancreas (Sus scrofa, UniProt P00690).
T1 construct: A saline suspension of α-amylase from porcine pancreas; purchased Sigma Aldrich (Steinheim, Germany) Lot #SLBN9170V (catalogue number not given); host or cells: porcine pancreas (tissue-derived)
T1 sequence (P00690 16-511): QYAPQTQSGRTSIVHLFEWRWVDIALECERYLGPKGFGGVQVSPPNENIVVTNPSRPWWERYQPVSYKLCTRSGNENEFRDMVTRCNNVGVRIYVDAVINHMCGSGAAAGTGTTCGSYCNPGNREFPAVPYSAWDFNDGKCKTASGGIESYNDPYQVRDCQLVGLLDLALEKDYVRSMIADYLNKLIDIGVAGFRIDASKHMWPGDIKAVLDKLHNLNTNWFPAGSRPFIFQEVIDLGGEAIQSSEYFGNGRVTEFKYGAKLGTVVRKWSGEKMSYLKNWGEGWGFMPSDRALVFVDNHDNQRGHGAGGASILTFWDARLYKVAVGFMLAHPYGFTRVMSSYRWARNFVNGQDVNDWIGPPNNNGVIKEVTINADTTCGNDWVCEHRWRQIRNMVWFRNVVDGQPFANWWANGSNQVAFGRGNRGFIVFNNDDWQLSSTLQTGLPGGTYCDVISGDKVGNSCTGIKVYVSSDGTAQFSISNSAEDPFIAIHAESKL
Nature of the assay: α-amylase enzyme activity assay, GalG2CNP conversion, UV/Vis detection of CNP at 405 nm. Format: biochemical. As to conditions: for conversion rate (v0) / inhibitory effect in UV/Vis assay: black carrot anthocyanins, 12.5−50 µM, artifact, simulated accelerated conversion; for Ki: global fit, 12.5, 25, 50 µM, UV/Vis artifact. On the procedure:
The enzyme activity assay, […], was established by Homoki and co-workers and already used by the authors to evaluate the inhibitory strength of different phenolic structures. To enable the evaluation of the result obtained in the present study compared to the non-anthocyanin phenolics investigated previously, the assay conditions were identical. In short, to 12 different GalG2CNP concentrations ([S] = 0−2000 µM) in MES^+ buffer, inhibitor [I] and 50 µL enzyme solution (c = 1.51 units/~100 pM, on the basis of supplier information) were mixed in a microtiter plate (Greiner BioOne, Frickenhausen, Germany; transparent, F-bottom). For blanks, the enzyme solution was substituted with MES^+ buffer. The final volume per well was 250 µL. To quantify the reaction product, a linear calibration with eight different CNP concentrations in the range of 0−35 µM was performed for each plate. Dilutions of the anthocyanin stock solutions (0.1% HCl) were equilibrated at pH 6.1 for one hour. Final inhibitor concentrations were limited due to its strong absorption at 405 nm to 12.5, 25, and 50 µM. For each anthocyanin structure, the assay was conducted on two to three different days with freshly prepared stocks of substrate, enzyme, and inhibitor.
In addition to the Michaelis Menten constant (Km) and the maximal conversion rate (vmax) values (Table S1), inhibition constants (Kic, Kiu) were calculated by fitting the data by two approaches: (i) According to the mixed inhibition equation (Equation (4)) or competitive inhibition equation (Equation (5)), applying an optimal global fit containing data from all inhibitor concentrations including the control ([I] = 0 µM); and (ii) by an independent fit according to the Michaelis Menten equation (Equation (6)), providing the apparent values Km^app and Vmax^app (Table S2) for each inhibitor concentration, which were then used to calculate the inhibition constants (Equations (7) and (8)). (4) v0= vmax/Km/[S] · (1+[I]/Kic)+(1+[I]/Kiu), (5) v0=vmax/Km/[S] · ( 1+[I]/Kic)+1, (6) v0=vmax · [S]/Km+[S], (7) Kic=vmax^app/Km^app · [I]/vmax/Km−vmax^app/Km^app, (8) Kiu=vmax^app · [I]/vmax− vmax^app.
The IC50 values of the different anthocyanins were derived from the inhibition constants for different substrate concentrations by the Cheng−Prusoff equation (Equation (9)). (9) IC50=(Km+[S])/Km/Kic+[S]/Kiu.
• KM: Michaelis Menten constant (µM) • vmax: Maximal conversion rate of the uninhibited reaction (µM/min) • v0: Observed conversion rate at given substrate and inhibitor concentration (µM/min) • [S]: Substrate concentration • [I]: Inhibitor concentration • Kic: Inhibitor constant, reflecting the competitive inhibition in the equation (µM) • Kiu: Inhibitor constant, reflecting the uncompetitive inhibition in the equation (µM) • vmax^app: Calculated maximal conversion rate, when the Michaelis Menten equation is used on an inhibited curve (µM/min) • Km^app: Calculated Michaelis Menten constant, when the Michaelis Menten equation is used on an inhibited curve (µM) • IC50: Half maximal inhibitory concentration (inhibitor concentration needed to achieve 50% inhibition; it is dependent on the substrate concentration) (µM)
For data analyses and calculations, Origin 2018b (OriginLab, software extension Enzyme Kinetics) was used. The Levenberg−Marquardt algorithm procedure was chosen for iteration. All assays were performed in two independent replicates at different dates. Values are expressed in arithmetic means ± average deviation (AD). The statistical significance and differences between groups were analyzed by one-way analysis of variance (ANOVA), followed by Tukey’s test. Differences were considered significant when p < 0.05. Data were processed using Microsoft Excel® (2010).

Assay [2] addresses T1, α-amylase from porcine pancreas. Nature of the assay: Isothermal titration calorimetry, single injection, GalG2CNP conversion. In kind it is biochemical. Conditions: 100 µM inhibitor, 0.95 mM substrate, 37 °C. On the procedure:
To evaluate the inhibitory strength of 100 µM anthocyanin-3-glucosides and black carrot anthocyanins, GalG2CNP conversion to CNP was monitored by the released heat. According to the previous study, ITC measurements were carried out in a single injection experiment set-up on a MICROCALTM PEAQ-ITC calorimeter (S/N MAL1188053, Malvern Panalytical Almelo, Netherlands). Following an equilibration time of 10 min, 1 µL α-amylase (1 µM in 50 mM MES^+ buffer) was added to 0.95 mM of the substrate with or without 100 µM of the phenolic inhibitor in the cell (Vcell = 0.207 mL). The temperature was maintained at 37 °C and the sample was stirred at 750 rpm throughout. The feedback/gain mode was set to high. The resulting heat profile was transformed and the conversion rate was plotted against the substrate concentration [S] by an origin routine template provided by Malvern® for Origin version 7.
(In general: In ITC the heat of successive injections is recorded.)

The next assay addresses human salivary α-amylase. Details: method as in PMID 26471548. Conditions: cited from earlier work.
In assay [3] the target is porcine pancreatic α-amylase. Set-up: method as in doi:10.1016/j.jff.2015.11.042. Conditions: cited from earlier work.
Assay [4] addresses T1, α-amylase from porcine pancreas. As to conditions: cited from earlier work; for IC50: read-out: IC50 (Cheng−Prussoff, Equation (9)); for Kmapp / vmaxapp: Michaelis Menten fit.

Structures are written as SMILES. Several values for one entry are separate records, joined by “and”; a condition that tells them apart may be missing. Equal values may be shown once. Entries after “also recorded” stand apart in the source; their conditions may differ. Read-outs that look alike come from different tables or passages of the source. Marks after values point to notes of the source that are not given here.

This is an account of results in PMC7142633, “Impact of B-Ring Substitution and Acylation with Hydroxy Cinnamic Acids on the Inhibition of Porcine α-Amylase by Anthocyanin-3-Glycosides” (Foods, 2020).

With `OC[C@H]1O[C@@H](Oc2cc3c(O)cc(O)cc3[o+]c2-c2ccc(O)c(O)c2)[C@H](O[C@@H]2OC[C@@H](O)[C@H](O)[C@H]2O)[C@@H](O)[C@H]1O` [BC 2, cyanidin-3-xylosyl-galactoside], the “conversion rate (v0) / inhibitory effect in UV/Vis assay” value in assay [1] is on record as “minor inhibitory effect”. Also, the “inhibitory strength by ITC (thermogram, Michaelis Menten plot)” value (“inhibitory strength by ITC” below) in assay [2] is “no significant difference”.

Regarding `COc1cc(/C=C/C(=O)OC[C@H]2O[C@@H](OC[C@H]3O[C@@H](Oc4cc5c(O)cc(O)cc5[o+]c4-c4ccc(O)c(O)c4)[C@H](O[C@@H]4OC[C@@H](O)[C@H](O)[C@H]4O)[C@@H](O)[C@H]3O)[C@H](O)[C@@H](O)[C@@H]2O)ccc1O` [BC 4], in assay [1], the “conversion rate (v0) / inhibitory effect in UV/Vis assay” value is “inhibits best”. Also, the inhibition type entry in assay [1] (from fits and Lineweaver−Burk / Hanes plots) is reported as “complete competitive inhibition; also recorded: predominantly competitive inhibition”. The Ki in assay [1] (Competitive Inhibition (Equation (5)), rough estimation, read-out: Kic) is ~20 µM and 20 µM; in assay [1] (Mixed Inhibition (Equation (4)), read-out: Kiu), 98 ± 139 µM; in assay [1] (Mixed Inhibition (Equation (4)), rough estimation, read-out: Kic), 23 ± 3 µM. Also, the “inhibitory strength by ITC” value in assay [2] is “significantly stronger inhibition of BC 4 compared to the non-acylated BC 2 and Cyd-3-glc”.

`C[C@@H]1O[C@@H](OC[C@H]2O[C@@H](Oc3cc4c(O)cc(O)cc4[o+]c3-c3ccc(O)c(O)c3)[C@H](O)[C@@H](O)[C@@H]2O)[C@H](O)[C@H](O)[C@H]1O` [Cyd-3-rut]: the IC50 at human salivary α-amylase is 200 ± 24 µM; in assay [3], 31 ± 7 µM.

Regarding `COc1cc(-c2[o+]c3cc(O)cc(O)c3cc2O[C@@H]2O[C@H](CO)[C@@H](O)[C@H](O)[C@H]2O)cc(OC)c1O` [Mlv-glc, malvidin-3-glucoside], the IC50 on human salivary α-amylase is 675 ± 73 µM; in assay [4] ((i) global fit, [S] 10 µM) it was 46 ± 4 µM; in assay [4] ((i) global fit, [S] 100 µM), 58 ± 7 µM; in assay [4] ((i) global fit, [S] 10^3 µM), 106 ± 24 µM; in assay [4] ((i) global fit, [S] 10^6 µM) it was 143 ± 44 µM; in assay [4] ((ii) independent fit, [S] 10 µM), 71 ± 16 µM. For the same compound, the IC50 in assay [4] ((ii) independent fit, [S] 100 µM) is 83 ± 10 µM; in assay [4] ((ii) independent fit, [S] 10^3 µM), 121 ± 21 µM; in assay [4] ((ii) independent fit, [S] 10^6 µM) it was 147 ± 50 µM. In addition, the inhibition type result in the assay with human salivary α-amylase is on record as “competitive inhibition type”. Moreover, the Kic/Kiu in assay [4] ((i) global fit, Equation (4)) is on record as 0.32 ± 0.07 ^a; in assay [4] ((ii) independent fit, Equations (7) and (8)) it was 0.58 ± 0.35 ^a. The Ki is 44 ± 4 µM in assay [4] ((i) global fit, mixed inhibition Equation (4), read-out: Kic); 143 ± 44 µM in assay [4] ((i) global fit, mixed inhibition Equation (4), read-out: Kiu); 69 ± 17 µM in assay [4] ((ii) independent Michaelis Menten fit, Equation (7), read-out: Kic); 147 ± 50 µM in assay [4] ((ii) independent Michaelis Menten fit, Equation (8), read-out: Kiu); 74 ± 1 µM in assay [4] (from apparent values, inhibitor c 25 µM, read-out: Kic); 150 ± 14 µM in assay [4] (from apparent values, inhibitor c 25 µM, read-out: Kiu). In addition, the Ki in assay [4] (from apparent values, inhibitor c 50 µM, read-out: Kic) was 36 ± 6 µM; in assay [4] (from apparent values, inhibitor c 50 µM, read-out: Kiu), 159 ± 66 µM; in assay [4] (from apparent values, inhibitor c 12,5 µM, read-out: Kic) it was 139 µM; in assay [4] (from apparent values, inhibitor c 12,5 µM, read-out: Kiu), 84 µM; in assay [4] (mean over inhibitor c 12,5, 25, 50 µM (Supplementary 2), read-out: Kic mean ± SD), 83 ± 52 µM; in assay [4] (mean over inhibitor c 12,5, 25, 50 µM (Supplementary 2), read-out: Kiu mean ± SD), 131 ± 41 µM. The Kmapp in assay [4] (inhibitor c 25 µM) is given as 216 ± 3 µM; in assay [4] (inhibitor c 50 µM), 337 ± 4 µM; in assay [4] (inhibitor c 12,5 µM), 194 ± 22 µM. Also, the vmaxapp in assay [4] (inhibitor c 25 µM) was 0.67 ± 0.16 µM/min; in assay [4] (inhibitor c 50 µM), 0.60 ± 0.20 µM/min; in assay [4] (inhibitor c 12,5 µM), 0.74 ± 0.24 µM/min. For the same compound, the “inhibitory strength by ITC” value in assay [2] is on record as “Mlv-3-glc > Cyd-3-glc > Dpd-3-glc~Peo-3-glc”.

Usually IC50 stands for the point on the concentration scale where inhibition reaches its midpoint.
